Reference: patent US7759313B2, “Induction method for cell differentiation” (Obschetstvo S Ogranichennoi Otvetstvennostiyu …, priority 2002, dated 2010)
Like-named read-outs stand apart in the source and are kept apart here.

How the values were obtained:
[1] = format: in vivo, mice
Description: Two groups of mice are used.

[2] = Hematological toxicity according to WHO in ovarian cancer patients; format: in vivo, human
Experimental: The effect of Dicarbamine was studied in 13 patients with stage III-IV ovarian cancer who underwent 77 courses of the chemotherapy according to the scheme: 400 mg/m^2 Carboplatin i.v. drop-wise, once +600 mg/m^2 Cyclophosphan i.v. drop-wise, once; the courses were repeated in 28 days. Dicarbamine was prescribed daily at dose 100 mg orally after meals beginning 5 days prior to the first course and then for three weeks. Dosing duration was 26 days, course dose being 2600 mg. Dicarbamine was given again 5 days prior to the second chemotherapy course, and dosing was continued for 21 days. Total duration of Dicarbamine intake during two the chemotherapy courses was 52 days.
Hematological toxicity (leukopenia, neutropenia, thrombocytopenia) was assessed in 13 patients who received 77 courses of the chemotherapy with Dicarbamine as compared with the group of 7 patients who received 25-27 courses of the chemotherapy without Dicarbamine (control).

[3] = test system: hematopoietic cells of the bone marrow; experiment: Electronic microscopy of bone marrow of ovarian cancer patients during chemotherapy; format: in vivo, human; conditions: Cyclophosphane 600 mg/m^2 + Carboplatin 400 mg/m^2 along with Dicarbamine 100 mg
Experimental: The patients were divided into two equal groups: group I—patients who received the chemotherapy alone and group II—patients who received the chemotherapy along with Dicarbamine administration. […] The average chemotherapy course of one patient included 6 courses without Dicarbamine and 5.7 courses with Dicarbamine. In group II patients received the chemotherapy along with Dicarbamine dosing at a single dose 100 mg beginning 5 days before the first course and then until the beginning of next course at the same dose. […] Puncture biopsy of the bone marrow and peripheral blood for electronic microscopy were taken from patients prior to the chemotherapy and at the end of treatment course with Dicarbamine or without it. Fresh bone marrow puncture biopsies were placed on a slide plate and stirred many times with a stirring rod until small dense fragments were obtained. […] Semi-thin and ultra-thin slices were prepared on the LKB-III ultratome (Sweden). The semi-thin slices were stained with Methylene or Toluidine blue, ultra-thin slices were stained with an aqueous solution of uranyl acetate and lead citrate.

[4] = test system: stage III-IV ovarian cancer; experiment: Efficacy of therapy after two chemotherapy courses; format: in vivo, human
Experimental: Efficacy of therapy was assessed in groups of patients following two courses of the chemotherapy with or without Dicarbamine according to the above described scheme. Efficacy was assessed according to the generally accepted parameters: CR—complete remission, PR—partial remission, SB—stabilization; and Progr. —progression.

[5] = vs chemotherapy without Dicarbamine

O=C(O)CCCC(=O)NCCc1c[nH]cn1 [Dicarbamine]
Terms of death (100 + 15 mg/kg): no | Total leukocyte number (100 + 15 mg/kg, day 0): 11.50 ± 2.80 thousand in mm^3 | Total leukocyte number (100 + 15 mg/kg, day 3): 4.04 ± 0.44 thousand in mm^3 | Total leukocyte number (100 + 15 mg/kg, day 5): 10.40 ± 1.59 thousand in mm^3 | Total leukocyte number (100 + 15 mg/kg, day 7): 14.80 ± 1.76 thousand in mm^3 | Total leukocyte number (100 + 15 mg/kg, day 21): 11.80 ± 1.34 thousand in mm^3 | Terms of death (200 + 30 mg/kg): 10 | Total leukocyte number (200 + 30 mg/kg, day 3): 3.10 ± 0.70 thousand in mm^3 | Total leukocyte number (200 + 30 mg/kg, day 5): 12.80 ± 1.37 thousand in mm^3 | Total leukocyte number (200 + 30 mg/kg, day 7): 15.30 ± 1.26 thousand in mm^3 | Total leukocyte number (200 + 30 mg/kg, day 21): 12.30 ± 0.89 thousand in mm^3 | Total leukocyte number (cytostatic doses 200 + 30 mg/kg (Dicarbamine group: 0.5 mg/kg daily 20 days), day 0): 11.50 ± 2.80 thousand in mm^3 | Cellularity of bone marrow (number of cells) ([1]; CPH 200 mg/kg (Dicarbamine group: 0.5 mg/kg 5 days prior and 5 days after), day 3): 14.5 ± 3.43 millions | Cellularity of bone marrow (number of cells) ([1]; day 5 after CPH): 21.55 ± 1.92 millions | Cellularity of bone marrow (number of cells) ([1]; day 7 after CPH): 32.35 ± 3.57 millions | Cellularity of bone marrow (number of cells) ([1]; day 10 after CPH): 33.8 ± 3.85 millions | Cellularity of bone marrow (number of cells) ([1]; day 13 after CPH): 32.6 ± 5.22 millions | Cellularity of bone marrow (number of cells) ([1]; day 17 after CPH): 28.25 ± 3.02 millions | Cellularity of bone marrow (number of cells) ([1]; day 21 after CPH): 30.4 ± 2.75 millions | Leukopenia ([2]; WHO degree 0): 7.7% | Leukopenia, number ([2]; WHO degree 0): 6 | Neutropenia ([2]; WHO degree 0): 31.3% | Neutropenia, number ([2]; WHO degree 0): 21 | Thrombocytopenia ([2]; WHO degree 0): 35.5% | Thrombocytopenia, number ([2]; WHO degree 0): 27 | Leukopenia ([2]; WHO degree I): 23.3% | Leukopenia, number ([2]; WHO degree I): 18 | Neutropenia ([2]; WHO degree I): 17.9% | Neutropenia, number ([2]; WHO degree I): 12 | Thrombocytopenia ([2]; WHO degree I): 42.1% | Thrombocytopenia, number ([2]; WHO degree I): 32 | Leukopenia ([2]; WHO degree II): 55.8% | Leukopenia, number ([2]; WHO degree II): 43 | Neutropenia ([2]; WHO degree II): 34.3% | Neutropenia, number ([2]; WHO degree II): 23 | Thrombocytopenia ([2]; WHO degree II): 13.1% | Thrombocytopenia, number ([2]; WHO degree II): 10 | Leukopenia ([2]; WHO degree III): 12.9% | Leukopenia, number ([2]; WHO degree III): 10 | Neutropenia ([2]; WHO degree III): 7.4% | Neutropenia, number ([2]; WHO degree III): 5 | Thrombocytopenia ([2]; WHO degree III): 7.8% | Thrombocytopenia, number ([2]; WHO degree III): 6 | Leukopenia ([2]; WHO degree III + IV): 12.9% | Leukopenia, number ([2]; WHO degree III + IV): 10 | Neutropenia ([2]; WHO degree III + IV): 16.4% | Neutropenia, number ([2]; WHO degree III + IV): 11 | Thrombocytopenia ([2]; WHO degree III + IV): 9.1% | Thrombocytopenia, number ([2]; WHO degree III + IV): 7 | Leukopenia, number ([2]; WHO degree IV): 0 | Neutropenia ([2]; WHO degree IV): 8.9% | Neutropenia, number ([2]; WHO degree IV): 6 | Thrombocytopenia ([2]; WHO degree IV): 1.3% | Thrombocytopenia, number ([2]; WHO degree IV): 1 | decrease of hematological toxicity on the basis of leukopenia [2, 5]: 1.8 fold | decrease of hematological toxicity on the basis of neutropenia [2, 5]: 2.6 fold | decrease of hematological toxicity on the basis of thrombocytopenia [2, 5]: 2.2 fold | cells with apoptosis signs in bone marrow puncture biopsies [3]: rarely observed | CR [4]: 26.6% | CR, number of patients [4]: 4 | PR [4]: 46.6% | PR, number of patients [4]: 7 | Progr. [4]: 13.3% | Progr., number of patients [4]: 2 | SB [4]: 13.5% | SB, number of patients [4]: 2 | tumor growth control (CR+PR) [4]: 73.2%
